In one series the test system is male beagle dogs. The series is described as follows: Clinical signs and body weight in the single dose dog study (Example 5). The class given is in vivo, beagle dog (Canis familiaris). The settings on record: study period. An excerpt:
Before dosing initiation, all animals were weighed and assigned to treatment groups. At the start of treatment, animals were 7-16 months of age and ranged in weight as 6.4 to 9.4 kg. Animals were housed individually in stainless steel cages equipped with a mesh-type floor and an automatic watering valve. A standard certified pelleted commercial dog food (approximately 400 g of Certified Canine Diet 5C07, PMI Nutrition International, Inc.) was provided to each animal once daily, except during designated procedures. Maximum allowable concentrations of contaminants in the diet (e.g., heavy metals, aflatoxin, organophosphates, chlorinated hydrocarbons, PCBs) were controlled and routinely analyzed by the manufacturers. It was considered that there were no known contaminants in the food that could have interfered with the objectives of the study. Municipal tap water, which was softened, purified by reverse osmosis and exposed to ultraviolet light, was freely available except during designated procedures. It was considered that there were no known contaminants in the water that could have interfered with the objectives of the study. Each Animal was provided with a floor toy, except during designated activities.
Individual body weights were measured once during the predose period and prior to each dose on dosing days.

The test system of another series is canine. The series is described as follows: Canine chronic toxicology study. The series is classed as in vivo, dog. The note with it: very highest 2,000 mg/kg dose level.

For the compound `CC(=O)N[C@H]1[C@H]([C@H](O)[C@H](O)CO)OC(O)(C(=O)O)C[C@@H]1O` (stereo partly drawn) [sialic acid, 5-N-acetylneuraminic acid], the treatment-related clinical signs entry in the series with male beagle dogs (oral or intravenous administration) is recorded as “no treatment-related clinical signs”. Further, the “body weight or body weight gains” value in the series with male beagle dogs is “no treatment related changes in body weight or body weight gains”. Further, the “finding in canine chronic toxicology study” value in the series with canine is “loosening of stools”.

For the origin of these results see patent publication US9554987B2, “Methods and formulations for treating sialic acid deficiencies” (ULTRAGENYX PHARMACEUTICAL INC., priority 2010, dated 2017).
